# Experimental data as given in patent publication US20120101100A1 (priority 2008, published 2012).
# Biological target: S. aureus GyrB ATPase (Staphylococcus aureus, UniProt P0A0K8)
# Assay: S. aureus (SAU) GyrB ATPase inhibition, malachite green phosphate detection (E. coli GyrA + S. aureus GyrB)
# Format: biochemical
# Settings: compound concentration of 1.0 μM unless otherwise noted; average value where assay was carried out more than once; read-out: S. aureus (SAU) GyrB ATPase % Inhibition
# How it was run: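 E. coli GyrA and S. aureus GyrB (1.25 nM each) with 500 μM ATP and 5 μg/ml sheared salmon sperm DNA in 50 mM Hepes pH 7.5, 8.0 mM MgCl2. Released phosphate detected with ammonium molybdate/malachite green at 650 nm; 2% DMSO as 0% and 2 μM novobiocin as 100% inhibition; IC50 from 10 concentrations.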
# S. aureus GyrB ATPase, sequence (P0A0K8 whole entry): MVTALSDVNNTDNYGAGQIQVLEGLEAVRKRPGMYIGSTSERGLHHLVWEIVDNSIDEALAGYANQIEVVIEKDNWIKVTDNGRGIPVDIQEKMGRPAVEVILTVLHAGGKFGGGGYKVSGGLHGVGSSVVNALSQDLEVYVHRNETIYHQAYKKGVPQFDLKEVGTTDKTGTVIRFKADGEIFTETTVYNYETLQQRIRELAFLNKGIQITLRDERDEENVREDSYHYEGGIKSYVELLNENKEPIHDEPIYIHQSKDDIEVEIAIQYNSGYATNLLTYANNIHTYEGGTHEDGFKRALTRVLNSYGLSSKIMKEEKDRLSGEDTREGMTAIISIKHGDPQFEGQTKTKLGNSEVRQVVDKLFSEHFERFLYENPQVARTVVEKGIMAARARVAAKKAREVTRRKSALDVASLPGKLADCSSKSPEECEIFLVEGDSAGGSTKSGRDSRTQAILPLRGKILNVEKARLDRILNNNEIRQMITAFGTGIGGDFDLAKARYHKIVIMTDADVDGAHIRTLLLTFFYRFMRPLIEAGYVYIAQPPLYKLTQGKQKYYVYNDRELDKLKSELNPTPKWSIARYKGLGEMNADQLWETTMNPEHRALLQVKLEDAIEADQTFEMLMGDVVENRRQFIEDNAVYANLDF
# S. aureus GyrB ATPase, sequence (P0AES4 whole entry, further chain): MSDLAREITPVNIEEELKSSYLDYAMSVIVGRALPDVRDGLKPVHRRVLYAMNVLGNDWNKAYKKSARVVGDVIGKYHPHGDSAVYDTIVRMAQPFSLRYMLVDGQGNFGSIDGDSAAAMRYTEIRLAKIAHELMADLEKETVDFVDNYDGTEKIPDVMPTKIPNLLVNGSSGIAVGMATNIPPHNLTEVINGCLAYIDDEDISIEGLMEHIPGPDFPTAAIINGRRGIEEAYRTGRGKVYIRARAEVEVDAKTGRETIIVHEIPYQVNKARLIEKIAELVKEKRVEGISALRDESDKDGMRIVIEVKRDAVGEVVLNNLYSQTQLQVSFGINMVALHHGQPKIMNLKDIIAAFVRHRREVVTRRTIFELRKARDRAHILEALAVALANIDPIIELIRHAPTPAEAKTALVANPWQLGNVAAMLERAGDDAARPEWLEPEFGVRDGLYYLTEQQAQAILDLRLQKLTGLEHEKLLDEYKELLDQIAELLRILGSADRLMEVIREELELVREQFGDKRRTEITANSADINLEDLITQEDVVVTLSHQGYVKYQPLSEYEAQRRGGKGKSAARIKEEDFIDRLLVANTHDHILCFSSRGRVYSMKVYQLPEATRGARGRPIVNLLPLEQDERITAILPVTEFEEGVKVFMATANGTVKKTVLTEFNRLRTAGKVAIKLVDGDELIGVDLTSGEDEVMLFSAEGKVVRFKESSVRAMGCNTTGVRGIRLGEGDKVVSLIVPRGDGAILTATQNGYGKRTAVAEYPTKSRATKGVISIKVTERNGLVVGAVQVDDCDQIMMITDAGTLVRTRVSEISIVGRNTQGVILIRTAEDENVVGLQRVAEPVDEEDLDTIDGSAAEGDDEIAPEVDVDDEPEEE
row,Structure (SMILES),inhibition at 1 µM
1,"CCNC(=O)Nc1cc(-c2nc(-c3ccccc3)cs2)c(-c2ccnc(-c3n[nH]c(=O)o3)c2)cn1 [Example 95, 1-ethyl-3-(2′-(5-oxo-4,5-dihydro-1,3,4-oxadiazol-2-yl)-4-(4-phenylthiazol-2-yl)-3,4′-bipyridin-6-yl)urea]",99%
2,"CCNC(=O)Nc1cc(-c2nc(-c3ccccc3)cs2)c(-c2ccnc(-c3nnc(C)o3)c2)cn1 [Example 96, 1-ethyl-3-(2′-(5-methyl-1,3,4-oxadiazol-2-yl)-4-(4-phenylthiazol-2-yl)-3,4′-bipyridin-6-yl)urea]",100%
3,"CCNC(=O)Nc1cc(-c2nc(-c3ccccc3)cs2)c(-c2nc(-c3ncnn3C)c(-c3nnc(C)o3)s2)cn1 [Example 97, 1-ethyl-3-(5-(5-(5-methyl-1,3,4-oxadiazol-2-yl)-4-(1-methyl-1H-1,2,4-triazol-5-yl)thiazol-2-yl)-4-(4-phenylthiazol-2-yl)pyridin-2-yl)urea]",99%
4,"CCNC(=O)Nc1cc(-c2nc(-c3ccccc3)cs2)c(-c2nc(-c3ncccn3)c(-c3nnc(C)o3)s2)cn1 [Example 98, 1-ethyl-3-(5-(5-(5-methyl-1,3,4-oxadiazol-2-yl)-4-(pyrimidin-2-yl)thiazol-2-yl)-4-(4-phenylthiazol-2-yl)pyridin-2-yl)urea]",100%
5,"CCNC(=O)Nc1cc(-c2nc(C(F)(F)F)cs2)c(-c2cc(-c3n[nH]c(=O)o3)cnc2OCCN2CCN(C)CC2)cn1 [Example 99, 1-Ethyl-3-(2′-(2-(4-methylpiperazin-1-yl)ethoxy)-5′-(5-oxo-4,5-dihydro-1,3,4-oxadiazol-2-yl)-4-(4-(trifluoromethyl)thiazol-2-yl)-3,3′-bipyridin-6-yl)urea]",97%
6,"CCNC(=O)Nc1cc(-c2nc(C(F)(F)F)cs2)c(-c2cc(-c3n[nH]c(=O)o3)cnc2OCCN(C)C)cn1 [Example 100, 1-(2′-(2-(Dimethylamino)ethoxy)-5′-(5-oxo-4,5-dihydro-1,3,4-oxadiazol-2-yl)-4-(4-(trifluoromethyl)thiazol-2-yl)-3,3′-bipyridin-6-yl)-3-ethylurea]",98%
7,"CCNC(=O)Nc1cc(-c2nc(C(F)(F)F)cs2)c(-c2cc(-c3n[nH]c(=O)o3)cnc2OC)cn1 [Example 101, 1-Ethyl-3-(2′-methoxy-5′-(5-oxo-4,5-dihydro-1,3,4-oxadiazol-2-yl)-4-(4-(trifluoromethyl)thiazol-2-yl)-3,3′-bipyridin-6-yl)urea]",97%
8,"CCNC(=O)Nc1cc(-c2nc(C(F)(F)F)cs2)c(-c2cc(-c3n[nH]c(=O)o3)cnc2OCCN2CCOCC2)cn1 [Example 102, 1-Ethyl-3-(2′-(2-morpholinoethoxy)-5′-(5-oxo-4,5-dihydro-1,3,4-oxadiazol-2-yl)-4-(4-(trifluoromethyl)thiazol-2-yl)-3,3′-bipyridin-6-yl)urea]",92%
9,"CCNC(=O)Nc1cc(-c2nc(-c3ccccn3)cs2)c(-c2cncc(-c3nnc(C)o3)c2)cn1 [Example 104, 1-Ethyl-3-(5′-(5-methyl-1,3,4-oxadiazol-2-yl)-4-(4-(pyridin-2-yl)thiazol-2-yl)-3,3′-bipyridin-6-yl)urea]",98%
10,"CCNC(=O)Nc1cc(-c2nc(-c3ccccn3)cs2)c(-c2cncc(S(N)(=O)=O)c2)cn1 [Example 105, 6′-(3-Ethylureido)-4′-(4-(pyridin-2-yl)thiazol-2-yl)-3,3′-bipyridine-5-sulfonamide]",101%
11,"CCNC(=O)Nc1cc(-c2nc(-c3ccccn3)cs2)c(-c2ccnc(-c3n[nH]c(=O)o3)c2)cn1 [Example 106, 1-Ethyl-3-(2′-(5-oxo-4,5-dihydro-1,3,4-oxadiazol-2-yl)-4-(4-(pyridin-2-yl)thiazol-2-yl)-3,4′-bipyridin-6-yl)urea]",102%
12,"CCNC(=O)Nc1cc(-c2cnn(CC(C)C)c2)c(-c2cncc(-c3n[nH]c(=O)o3)c2)cn1 [Example 107, 1-Ethyl-3-(4-(1-isobutl-1H-pyrazol-4-yl)-5′-(5-oxo-4,5-dihydro-1,3,4-oxadiazol-2-yl)-3,3′-bipyridin-6-yl)urea]",97%
13,"CCNC(=O)Nc1cc(-c2ccc(N3CCOCC3)cc2)c(-c2cncc(-c3n[nH]c(=O)o3)c2)cn1 [Example 108, 1-Ethyl-3-(4-(4-morpholinophenyl)-5′-(5-oxo-4,5-dihydro-1,3,4-oxadiazol-2-yl)-3,3′-bipyridin-6-yl)urea]",103%
14,"CCNC(=O)Nc1cc(-c2nc(C(F)(F)F)cs2)c(-c2cc(-c3n[nH]c(=O)o3)cnc2OC2CCNCC2)cn1 [Example 109, 1-Ethyl-3-{5′-(5-oxo-4,5-dihydro-1,3,4-oxadiazol-2-yl)-2′-(piperidin-4-yloxy)-4-[4-(trifluoromethyl)-1,3-thiazol-2-yl]-3,3′-bipyridin-6-yl}urea]",98%
15,"CCNC(=O)Nc1cc(-c2nc(C(F)(F)F)cs2)c(-c2cc(-c3nnc(C)o3)cnc2OC2CCNCC2)cn1 [Example 110, 1-Ethyl-3-{5′-(5-methyl-1,3,4-oxadiazol-2-yl)-2′-(piperidin-4-yloxy)-4-[4-(trifluoromethyl)-1,3-thiazol-2-yl]-3,3′-bipyridin-6-yl}urea]",95%
16,"CCNC(=O)Nc1cc(-c2nc(C(F)(F)F)cs2)c(-c2cc(-c3n[nH]c(=O)o3)cnc2OCCC(=O)O)cn1 [Example 111, 3-({6′-[(ethylcarbamoyl)amino]-5-(5-oxo-4,5-dihydro-1,3,4-oxadiazol-2-yl)-4′-[4-(trifluoromethyl)-1,3-thiazol-2-yl]-3,3′-bipyridin-2-yl}oxy)propanoic acid]",106%
17,"CCNC(=O)Nc1cc(-c2nc(C(F)(F)F)cs2)c(-c2cc(-c3n[nH]c(=O)o3)cnc2OCC2CCOCC2)cn1 [Example 112, 1-Ethyl-3-{5′-(5-oxo-4,5-dihydro-1,3,4-oxadiazol-2-yl)-2′-(tetrahydro-2H-pyran-4-ylmethoxy)-4-[4-(trifluoromethyl)-1,3-thiazol-2-yl]-3,3′-bipyridin-6-yl}urea]",95%
18,"CCNC(=O)Nc1cc(-c2nc(C(F)(F)F)cs2)c(-c2cc(-c3nnc(C)o3)cnc2OCC2CCOCC2)cn1 [Example 113, 1-Ethyl-3-{5′-(5-methyl-1,3,4-oxadiazol-2-yl)-2′-(tetrahydro-2H-pyran-4-ylmethoxy)-4-[4-(trifluoromethyl)-1,3-thiazol-2-yl]-3,3′-bipyridin-6-yl}urea]",45%
19,"CCNC(=O)Nc1cc(-c2nc(C(F)(F)F)cs2)c(-c2cc(-c3nnc(C)o3)cnc2OC(C)CN(C)C)cn1 (stereo not drawn) [Example 114, 1-(2′-(1-(Dimethylamino)propan-2-yloxy)-5′-(5-methyl-1,3,4-oxadiazol-2-yl)-4-(4-(trifluoromethyl)thiazol-2-yl)-3,3′-bipyridin-6-yl)-3-ethylurea]",97%
20,"CCNC(=O)Nc1cc(-c2nc(C(F)(F)F)cs2)c(-c2cc(-c3nnc(C)o3)cnc2OCCN(CC)CC)cn1 [Example 115, 1-(2′-(2-(diethylamino)ethoxy)-5′-(5-methyl-1,3,4-oxadiazol-2-yl)-4-(4-(trifluoromethyl)thiazol-2-yl)-3,3′-bipyridin-6-yl)-3-ethylurea]",96%
21,"CCNC(=O)Nc1cc(-c2nc(C(F)(F)F)cs2)c(-c2cc(-c3nnc(C)o3)cnc2OCCN(C(C)C)C(C)C)cn1 [Example 116, 1-(2′-(2-(diisopropylamino)ethoxy)-5′-(5-methyl-1,3,4-oxadiazol-2-yl)-4-(4(trifluoromethyl)thiazol-2-yl)-3,3′-bipyridin-6-yl)-3-ethylurea]",90%
